{"source": "patent US20160361326A1", "about": "“METHOD OF TREATING HYPERGLYCEMIA AND DIABETES AND OF INCREASING ADSORPTION AND EFFICACY OF VITAMIN D” (Board of Supervisors of Louisiana State University and …, priority 2015, published 2016)", "key": {"[1]": {"system": "Zucker diabetic fatty rats", "experiment": "L-cysteine supplementation in Zucker diabetic fatty rats: liver protein and mRNA expression, glutathione, reactive oxygen species", "format": "in vivo, rat", "settings": "8 weeks", "from_the_text": "(§1) The animal protocol was approved by the institutional Animal Welfare Committee (P-15-006). All procedures performed were in accordance with the ethical standards of the institution. Male Zucker diabetic fatty rats at an age of 5 weeks and weighing about 200-220 g were purchased from Charles River (Wilmington, Mass., USA). The animals were allowed to acclimate to the environmental and handling conditions for 2 days. Computer generated randomization was used to divide rats into two groups, after which they were housed and labelled in individual cages. After overnight fasting they were weighed and tested for hyperglycemia by measuring their blood glucose concentration. Blood was collected via tail incision and the blood glucose levels were measured using an Advantage Accu-chek glucometer (Boehringer Mannheim Corp., Indianapolis, Ind., USA). One group of rats was labeled as diabetic controls and gavaged with saline alone. […] A third group included in the study, called the control group, consisted of male Sprague Dawley (SD) rats who were also gavaged daily with saline. […] Blood glucose and body weight were monitored weekly in all rats. Based on any change in their weights the L-cysteine supplementation dose was adjusted accordingly every week to maintain a similar dose per Kg BW over the entire period of the study.\n(§2) All Zucker diabetic fatty rats were fed a high calorie Purina 5008 lab chow diet (Charles River, Wilmington, Mass., USA). This diet contained 3.4 IU vitamin D3 per gram diet. Sprague Dawley rats were fed a standard 8640 lab chow diet, which contained 3 IU vitamin D3 per gram diet (Harlan, Indianapolis, Ind., USA); both Zucker diabetic fatty and Sprague Dawley rats were maintained at 22 ±2° C. with 12:12-h light/dark cycles. Food intake of all rats was monitored. The control group contained six rats. There were also six rats each in the placebo and L-cysteine-supplemented diabetic rat groups. At the end of 8 weeks the rats were fasted overnight and euthanized by exposing them to halothane (2-bromo-2-chloro-1,1,1-trifluoroethane). Blood was drawn with a 191/2 gauge needle via cardiac puncture into vacutainer tubes. Aliquots of blood collected from all rats were sent to the clinical laboratory of LSUHSC-Shreveport for blood chemistry profiles, including liver and renal function and red blood cell counts. Plasma was isolated in a 4° C. centrifuge at 3000 rpm for 10 min from blood collected into EDTA tubes. Rat livers were perfused using cold saline. Once extracted, they were labeled appropriately, and stored at −80° C.\nAbout 50 mg of liver tissue was weighed and homogenized in 1 mL TRIzol reagent (Invitrogen, Grand Island, N.Y., USA). The RNA extraction was performed according to the instructions provided. The concentration and quality of the extracted RNA were determined on a NanoDrop spectrophotometer (Thermo Scientific, Pittsburgh, Pa., USA). A High Capacity RNA-To-cDNA kit (Invitrogen) was used to synthesize cDNA. QPCR was performed using a 7900HT Real Time PCR system and software (Applied Biosystems, Grand Island, NY, USA) using the FAM-labeled primer/probe set Rn00561256_m1 for vitamin D binding protein (also called GC), Rn00690616_m1 for vitamin D receptor, Rn01754615 ml for CYP2R1, and Rn01775763_g1 for GAPDH (Invitrogen), respectively. The relative fold change of mRNA was calculated using the relative quantification (ΔΔCT) method.\nLevels of glutathione and L-cysteine were determined using HPLC. In cell culture studies, the whole cell suspension was processed for the glutathione assay. Cell viability was determined using the Alamar Blue method (Alamar Biosciences, Sacramento, Calif., USA). Details of immunoblotting are similar to those known in the art. The antibodies for vitamin D binding protein (52 KD), β-Actin (40 KD), glutamate-cysteine ligase catalytic subunit (GCLC) (75 KD), and vitamin D receptor (48 KD) were purchased from Abcam (Cambridge, Mass., USA). […]"}, "[2]": {"experiment": "L-cysteine supplementation in Zucker diabetic fatty rats: body weight, plasma lipids, liver and kidney function tests", "format": "in vivo, rat", "from_the_text": "as §1, with “rats.” for “rats. Based on any change in their weights the L-cysteine supplementation dose was adjusted accordingly every week to maintain a similar dose per Kg BW over the entire period of the study.”\nas §2, with “There were also six rats each in the placebo and L-cysteine-supplemented diabetic rat groups.” left out"}, "THP-1 monocytes": {"system": "THP-1 monocytes", "experiment": "L-cysteine and vitamin D supplementation in control and high-glucose treated THP-1 monocytes", "format": "cell-based, human", "procedure": "Control cells were treated with mannitol, which is considered an osmolarity control. To investigate the role of glutathione, siRNA specific for glutamate cysteine ligase catalytic unit (the catalytic component of the enzyme) was used to knock down the enzyme and induce glutathione deficiency. Complexes of glutamate cysteine ligase catalytic unit siRNA (Santa Cruz Biotechnology) and lipofectamine (Invitrogen) were allowed to form in culture flasks in serum free media, to which cells suspended in serum free media were added. After 24 hours complete media with serum was added and the cells were then treated as described in the figures.\n25-hydroxy vitamin D (calcidiol) blood test is used to determine how much vitamin D is in the body. The blood concentration of calcidiol is considered an standard indicator of vitamin D status. The kit includes polyclonal antibodies that detect total vitamin D binding protein levels. Levels of glutathione and L-cysteine were determined using HPLC. Details of immunoblotting and cell viability are similar to those given in the publication Vitamin D and 1-cysteine levels correlate positively with glutathione and negatively with insulin resistance levels in the blood of type 2 diabetic patients. Eur J Clin Nutr 68: 1148-1153, 2014 by Jain S K, Micinski D, Huning L, Kahlon G, Bass P F, and Levine SN—such described methods incorporated by reference herein. The antibodies for glutamate cysteine ligase catalytic unit (73 KD), vitamin D binding protein (52 KD), and vitamin D receptor (48 KD) were purchased from Abcam (Cambridge, Mass.)."}, "[3]": {"system": "Zucker diabetic fatty rats", "experiment": "L-cysteine supplementation in Zucker diabetic fatty rats: plasma levels of VDBP, 25(OH) vitamin D, glutathione, MCP-1, CRP", "format": "in vivo, rat", "settings": "1 mg/kg BW daily oral gavage, 8 weeks", "from_the_text": "as §1, §2\nPlasma levels of 25(OH) vitamin D, […] were determined using an ELISA kit (Eagle Biosciences, Nashua, N.H., USA). Plasma vitamin D binding protein quantification was carried out using a kit purchased from Alpco (Salem, N.H., USA). The kit includes polyclonal antibodies that detect total vitamin D binding protein levels. The cytokines MCP-1 (R&D Systems Inc., Minneapolis, Minn., USA) and CRP (Alpco) were determined using the sandwich ELISA method and commercially available kits. In the cytokine assay, control samples were analyzed each time to check the variation from plate to plate on different days of analysis. […]\nLevels of glutathione and L-cysteine were determined using HPLC. […] Cell viability was determined using the Alamar Blue method (Alamar Biosciences, Sacramento, Calif., USA). […] The intensity of each immunoblotting band was measured using the histogram tool of Adobe Photoshop CS5."}, "FL83B hepatocytes": {"system": "FL83B hepatocytes", "experiment": "L-cysteine supplementation in FL83B hepatocytes treated with control and high glucose", "format": "cell-based, mouse", "procedure": "The FL83B hepatocyte cell line was purchased from American Type Culture Collection (ATCC, Manassas, Va., USA). FL83B hepatocytes were cultured and maintained in F-12K complete medium. […] Control cells were treated with mannitol, which is considered an osmolarity control in some experiments. After 24 h, complete media with serum was added and the cells were then treated as described in the figures.\nLevels of glutathione and L-cysteine were determined using HPLC. In cell culture studies, the whole cell suspension was processed for the glutathione assay. Cell viability was determined using the Alamar Blue method (Alamar Biosciences, Sacramento, Calif., USA). Details of immunoblotting are similar to those known in the art. The antibodies for vitamin D binding protein (52 KD), β-Actin (40 KD), glutamate-cysteine ligase catalytic subunit (GCLC) (75 KD), and vitamin D receptor (48 KD) were purchased from Abcam (Cambridge, Mass., USA). The intensity of each immunoblotting band was measured using the histogram tool of Adobe Photoshop CS5.\nmRNA extraction and cDNA synthesis were done as described in the previous section. The following primers were used for hepatocytes: vitamin D binding protein (also called GC) (Mm04243540_m1), vitamin D receptor (Mm00437297_m1), GCLC (Mm00802655_m1), and GAPDH (Mm03302249_g1) and were purchased from Invitrogen. Sequence of oligonucleotides of primers used is given in Supporting Information Material. The relative fold change of mRNA was calculated using the relative quantification (ΔΔCT) method and then normalized to % control for representation."}, "[4]": {"settings": "1 mg/kg BW daily oral gavage, vs placebo"}, "[5]": {"settings": "1 mg/kg BW daily gavage for 8 weeks, mean ± SE, n=6"}, "[6]": {"settings": "vs placebo-supplemented diabetic rats"}, "[7]": {"settings": "hepatocytes cultured with high glucose (25 mM)"}, "[8]": {"settings": "control and high glucose (25 mM)"}}, "data": [{"smiles": "N[C@@H](CS)C(=O)O", "note": "[L-cysteine]", "values": [{"measurement": "glutathione levels in liver", "setting": "[1]; [4]", "value": "significantly higher"}, {"measurement": "mRNA expression of vitamin D 25-hydroxylase (CYP2R1) in liver", "setting": "[1]; [4]", "value": "significantly higher"}, {"measurement": "mRNA expression of vitamin D binding protein in liver", "setting": "[1]; [4]", "value": "significantly higher"}, {"measurement": "protein expression of vitamin D 25-hydroxylase (CYP2R1) in liver", "setting": "[1]; [4]", "value": "significantly higher"}, {"measurement": "protein expression of vitamin D binding protein in liver", "setting": "[1]; [4]", "value": "significantly higher"}, {"measurement": "reactive oxygen species levels in liver", "setting": "[1]; [4]", "value": "significantly lower"}, {"measurement": "expression of protein for vitamin D receptor in liver", "setting": "[1]; 1 mg/kg BW, higher vs placebo, p=0.17", "value": "not statistically significant"}, {"measurement": "expression of mRNA for vitamin D receptor in liver", "setting": "[1]; 1 mg/kg BW, higher vs placebo, p=0.30", "value": "not statistically significant"}, {"measurement": "Body weight", "setting": "[2]; [5]", "value": "346 ± 6.3", "unit": "g"}, {"measurement": "Triglycerides", "setting": "[2]; [5]", "value": "509 ± 55", "unit": "mg/dL"}, {"measurement": "side effects of L-cysteine supplementation", "setting": "[2]; 1 mg/kg BW daily gavage for 8 weeks, vs placebo", "value": "no negative side effects"}, {"measurement": "Calcium", "setting": "[2]; rat, in vivo, 1 mg/kg", "value": "9.9 ± 0.4", "unit": "mg/dL"}, {"measurement": "glutathione levels", "setting": "THP-1 monocytes", "value": "significant upregulation"}, {"measurement": "plasma glutathione", "setting": "[3]; vs placebo", "value": "increase"}, {"measurement": "blood levels of 25(OH) vitamin D", "setting": "[3]; [6]", "value": "significantly higher"}, {"measurement": "blood levels of vitamin D binding protein", "setting": "[3]; [6]", "value": "significantly higher"}, {"measurement": "CRP", "setting": "[3]; plasma, vs placebo", "value": "decrease"}, {"measurement": "MCP-1", "setting": "[3]; plasma, vs placebo", "value": "decrease"}, {"measurement": "mRNA levels of vitamin D binding protein", "setting": "FL83B hepatocytes; [7]", "value": "upregulation"}, {"measurement": "mRNA levels of vitamin D receptor", "setting": "FL83B hepatocytes; [7]", "value": "upregulation"}, {"measurement": "protein expression of vitamin D binding protein", "setting": "FL83B hepatocytes; [7]", "value": "upregulation"}, {"measurement": "protein expression of vitamin D receptor", "setting": "FL83B hepatocytes; [7]", "value": "upregulation"}, {"measurement": "decrease in glutathione levels after high glucose treatment", "setting": "FL83B hepatocytes; hepatocytes, high glucose (25 mM)", "value": "prevented"}]}, {"smiles": "C=C1CC[C@H](O)C/C1=C/C=C1\\CCC[C@]2(C)[C@@H]([C@H](C)CCCC(C)C)CC[C@@H]12", "note": "[vitamin D, cholecalciferol]", "values": [{"measurement": "vitamin D binding protein expression (VDBP/actin ratio)", "setting": "THP-1 monocytes; [8]", "value": "increase"}, {"measurement": "vitamin D receptor protein expression (VDR/actin ratio)", "setting": "THP-1 monocytes; [8]", "value": "increase"}]}]}
